Measurements taken from US20260242395A1, “AMINOHETEROARYL KINASE INHIBITORS” (ALLORION THERAPEUTICS INC, priority 2022, published 2026).

Columns and labels:
Type in all cases: biochemical
CDK2/CyclinE1 = molecular target: T1, CDK2/CyclinE1 (Homo sapiens, UniProt P24941); assay: CDK2/CyclinE1 kinase inhibitory activity (Caliper mobility shift); details: enzyme 3 nM, ATP 77 μM, 28° C. 30 min; read-out: CDK2/Cyclin E1 IC50
T1 construct: purchased Carna 04-165
Protocol: CDK2/CyclinE1 kinase inhibitory activity (IC50): 5 μl of various dilutions of test compounds in 1×kinase buffer (50 mM HEPES pH 7.5, 10 mM MgCl2, 2 mM DTT and […] Brij-35) were mixed with 10 μL of CDK2/CyclinE1 (Carna, 04-165 #, final concentration 3 nM in 1×Kinase buffer) in 384 plates and incubated at room temperature for 10 min. To initiate each reaction, 10 μL of peptide solution containing fluorescently-labeled-peptide 18(5-FAM-QSPKKG-CONH2) (GL, 114202 #, final concentration 3000 nM) and ATP (final concentration 77 μM) in 1×Kinase buffer was added to each of the wells containing test compound and CDK2/CyclinE1 mixture. The reaction was then allowed to proceed at 28° C. for 30 min and terminated by the addition of 25 μL stop buffer (100 mM HEPES pH 7.5, 50 mM EDTA, 0.2% Coating Reagent #3 (Perkin Elmer, 760050 #) and 0.015% Brij-35).
Following the kinase reaction, Caliper EZ reader II (Downstream voltages: −500V, Upstream voltages: −2250V, Base pressure −0.5 PSI, Screen pressure −1.2 PSI) was used to separate the phosphorylated (product) and the unphosphorylated (substrate) fluorescently-labeled peptide 18 based on their different mobility. Both substrate and product were measured and the ratio of these values were used to generate % conversion by Caliper EZ reader II. These conversion values were then transformed into % inhibition of kinase activity using the formula: % Inhibition=[(MA−X)/(MA−MI)]×100% where MA=conversion value of DMSO only controls, MI=conversion value of no enzyme controls and X=conversion value at any given compound dose. IC50 values were then calculated by plotting dose-response curves and then using the XLfit application in Excel software.

CDK4/CyclinD1 = molecular target: T2, CDK4/CyclinD1 (Homo sapiens, UniProt P11802); assay: CDK4/CyclinD1 kinase inhibitory activity (Caliper mobility shift); details: enzyme 20 nM, ATP 672 uM, 28° C. 30 min; read-out: CDK4/Cyclin D1 IC50
T2 construct: purchased ProQinase 0142-0143-1
T2 sequence (P11802 whole entry): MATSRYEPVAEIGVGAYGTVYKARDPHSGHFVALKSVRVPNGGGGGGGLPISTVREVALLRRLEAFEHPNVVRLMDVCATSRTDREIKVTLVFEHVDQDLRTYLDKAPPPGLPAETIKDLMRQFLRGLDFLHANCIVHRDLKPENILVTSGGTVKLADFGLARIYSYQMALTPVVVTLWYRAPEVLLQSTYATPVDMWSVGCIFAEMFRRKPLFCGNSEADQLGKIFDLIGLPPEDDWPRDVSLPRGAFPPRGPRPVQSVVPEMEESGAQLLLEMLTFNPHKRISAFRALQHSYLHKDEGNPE
T2 sequence (P24385 whole entry partner): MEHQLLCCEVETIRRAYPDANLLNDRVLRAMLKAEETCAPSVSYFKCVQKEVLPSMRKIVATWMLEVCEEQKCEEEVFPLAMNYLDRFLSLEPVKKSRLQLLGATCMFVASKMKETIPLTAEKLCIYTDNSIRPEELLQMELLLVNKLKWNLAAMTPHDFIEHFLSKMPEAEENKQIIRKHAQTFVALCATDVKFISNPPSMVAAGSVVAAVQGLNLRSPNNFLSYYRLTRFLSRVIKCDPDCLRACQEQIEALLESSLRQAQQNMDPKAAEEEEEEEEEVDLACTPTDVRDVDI
In short: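 Recombinant CDK4/Cyclin D1 (20 nM final) preincubated 10 min at room temperature with compound in HEPES pH 7.5 buffer with MgCl2, DTT and Triton X-100. Reaction started with 3000 nM FAM-labelled peptide and 672 uM ATP, run 30 min at 28° C, stopped with EDTA. Mobility-shift % conversion gave % inhibition, and IC50 came from dose-response fits.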

CDK6/CyclinD3 = molecular target: T3, CDK6/CyclinD3 (Homo sapiens, UniProt Q00534); assay: CDK6/CyclinD3 kinase inhibitory activity (Caliper mobility shift); details: enzyme 15 nM, ATP 800 μM, 28° C. 30 min; read-out: CDK6/Cyclin D3 IC50
T3 construct: purchased Carna 04-107
T3 sequence (Q00534 whole entry): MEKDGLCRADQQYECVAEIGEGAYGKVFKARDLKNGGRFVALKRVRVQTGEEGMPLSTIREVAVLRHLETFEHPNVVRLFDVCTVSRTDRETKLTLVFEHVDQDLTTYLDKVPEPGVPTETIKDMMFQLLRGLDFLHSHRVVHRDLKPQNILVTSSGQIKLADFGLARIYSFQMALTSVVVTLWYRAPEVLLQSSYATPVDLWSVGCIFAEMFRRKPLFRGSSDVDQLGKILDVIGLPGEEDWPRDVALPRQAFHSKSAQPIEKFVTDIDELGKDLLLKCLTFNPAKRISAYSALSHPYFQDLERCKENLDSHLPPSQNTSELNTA
T3 sequence (P30281 whole entry partner): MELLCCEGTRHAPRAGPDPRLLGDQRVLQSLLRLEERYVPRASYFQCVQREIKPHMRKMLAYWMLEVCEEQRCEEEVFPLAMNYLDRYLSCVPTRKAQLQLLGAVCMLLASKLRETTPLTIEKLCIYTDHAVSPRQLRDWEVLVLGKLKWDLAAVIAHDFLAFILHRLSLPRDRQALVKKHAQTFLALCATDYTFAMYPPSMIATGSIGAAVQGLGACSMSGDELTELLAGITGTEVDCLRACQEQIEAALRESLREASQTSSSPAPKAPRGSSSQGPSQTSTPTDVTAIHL
In short: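 Compound preincubated 10 min at room temperature with CDK6/CyclinD3 (15 nM final) in HEPES pH 7.5/MgCl2/DTT buffer; reaction with 5-FAM peptide (3000 nM) and ATP 800 μM, 30 min at 28°C, stopped with EDTA. Substrate/product separated by microfluidic mobility shift; % conversion converted to % inhibition, IC50 from dose-response curves.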

Row | Compound | IC50 (CDK2/CyclinE1) | IC50 (CDK4/CyclinD1) | IC50 (CDK6/CyclinD3)
1 | Cc1nc2c(F)cc(-c3nc(N[C@@H]4CCOC[C@H]4O)ncc3Cl)cc2c(C)c1[C@@H](C)O (single isomer, unassigned) [Example 15a] | 0.1 to 1 µM | < 0.01 µM | 0.01 to 0.1 µM
2 | Cc1nc2c(F)cc(-c3nc(N[C@@H]4CCOC[C@H]4O)ncc3Cl)cc2c(C)c1[C@H](C)O (single isomer, unassigned) [Example 15b] | 0.1 to 1 µM | < 0.01 µM | 0.01 to 0.1 µM
3 | O[C@@H]1COCC[C@H]1Nc1ncc(Cl)c(-c2cc(F)c3ncc4c(c3c2)C2CCC(C4)N2)n1 (single isomer, unassigned) [Example 20b] | 0.1 to 1 µM | < 0.01 µM | 0.1 to 1 µM
4 | CNC(C)c1cnc2c(F)cc(-c3nc(N[C@@H]4CCOC[C@H]4O)ncc3Cl)cc2c1 (single isomer, unassigned) [Example 32a] | 0.01 to 0.1 µM | < 0.01 µM | 0.1 to 1 µM
5 | CC(C)(O)c1cnc2c(F)cc(-c3nc(N[C@@H]4CCOC[C@H]4O)ncc3Cl)cc2c1 [Example 1, (3S,4R)-4-((5-chloro-4-(8-fluoro-3-(2-hydroxypropan-2-yl)quinolin-6-yl)pyrimidin-2-yl)amino)tetrahydro-2H-pyran-3-ol] | ≥ 1 µM | < 0.01 µM | 0.1 to 1 µM
6 | Cc1nc2c(F)cc(-c3nc(N[C@@H]4CCOC[C@H]4O)ncc3Cl)cc2cc1C(C)(C)O [Example 5, (3S,4R)-4-((5-chloro-4-(8-fluoro-3-(2-hydroxypropan-2-yl)-2-methylquinolin-6-yl)pyrimidin-2-yl)amino)tetrahydro-2H-pyran-3-ol] | 0.1 to 1 µM | < 0.01 µM | 0.1 to 1 µM
7 | Cc1c(C(C)(C)O)cnc2c(F)cc(-c3nc(N[C@@H]4CCOC[C@H]4O)ncc3Cl)cc12 [Example 7, (3S,4R)-4-((5-chloro-4-(8-fluoro-3-(2-hydroxypropan-2-yl)-4-methylquinolin-6-yl)pyrimidin-2-yl)amino)tetrahydro-2H-pyran-3-ol] | 0.1 to 1 µM | < 0.01 µM | 0.01 to 0.1 µM
8 | O[C@@H]1COCC[C@H]1Nc1ncc(Cl)c(-c2cc(F)c3ncc4c(c3c2)CCNC4)n1 [Example 8, (3S,4R)-4-((5-chloro-4-(7-fluoro-1,2,3,4-tetrahydrobenzo[c][2,7]naphthyridin-9-yl)pyrimidin-2-yl)amino)tetrahydro-2H-pyran-3-ol] | < 0.01 µM | < 0.01 µM | 0.01 to 0.1 µM
9 | O[C@@H]1COCC[C@H]1Nc1ncc(Cl)c(-c2cc(F)c3ncc4c(c3c2)CNCC4)n1 [Example 9, (3S,4R)-4-((5-chloro-4-(7-fluoro-1,2,3,4-tetrahydrobenzo[c][2,6]naphthyridin-9-yl)pyrimidin-2-yl)amino)tetrahydro-2H-pyran-3-ol] | 0.1 to 1 µM | < 0.01 µM | 0.1 to 1 µM
10 | CC(C)n1c(C(C)(C)O)nc2c(F)cc(-c3cc(N[C@@H]4CCOC[C@H]4O)ncc3Cl)cc21 [Example 12, (3S,4R)-4-((5-chloro-4-(4-fluoro-2-(2-hydroxypropan-2-yl)-1-isopropyl-1H-benzo[d]imidazol-6-yl)pyridin-2-yl)amino)tetrahydro-2H-pyran-3-ol] | ≥ 1 µM | 0.01 to 0.1 µM | 0.1 to 1 µM
11 | CC(C)(N)c1cnc2c(F)cc(-c3nc(N[C@@H]4CCOC[C@H]4O)ncc3Cl)cc2c1 [Example 14, (3S,4R)-4-((4-(3-(2-aminopropan-2-yl)-8-fluoroquinolin-6-yl)-5-chloropyrimidin-2-yl)amino)tetrahydro-2H-pyran-3-ol] | 0.01 to 0.1 µM | < 0.01 µM | 0.1 to 1 µM
12 | CC(C)(O)c1cnc2c(F)cc(-c3nc(N[C@@H]4CCOC[C@H]4O)ncc3Cl)cc2c1Cl [Example 17, (3S,4R)-4-((5-chloro-4-(4-chloro-8-fluoro-3-(2-hydroxypropan-2-yl)quinolin-6-yl)pyrimidin-2-yl)amino)tetrahydro-2H-pyran-3-ol] | 0.1 to 1 µM | < 0.01 µM | 0.01 to 0.1 µM
13 | Cc1[nH]cnc1-c1cnc2c(F)cc(-c3nc(N[C@@H]4CCOC[C@H]4O)ncc3Cl)cc2c1 [Example 18, (3S,4R)-4-((5-chloro-4-(8-fluoro-3-(5-methyl-1H-imidazol-4-yl)quinolin-6-yl)pyrimidin-2-yl)amino)tetrahydro-2H-pyran-3-ol] | 0.1 to 1 µM | < 0.01 µM | 0.1 to 1 µM
14 | O[C@@H]1COCC[C@H]1Nc1ncc(Cl)c(-c2cc(F)c3c(c2)N2CCNC[C@@H]2CO3)n1 [Example 19, (3S,4R)-4-((5-chloro-4-((R)-7-fluoro-1,2,3,4,4a,5-hexahydrobenzo[b]pyrazino[1,2-d][1,4]oxazin-9-yl)pyrimidin-2-yl)amino)tetrahydro-2H-pyran-3-ol] | 0.01 to 0.1 µM | < 0.01 µM | 0.01 to 0.1 µM

Further lines, results first:

Row | IC50 (CDK2/CyclinE1) | IC50 (CDK4/CyclinD1) | IC50 (CDK6/CyclinD3) | Compound
15 | 0.01 to 0.1 µM | < 0.01 µM | 0.01 to 0.1 µM | CC1Cc2cnc3c(F)cc(-c4nc(N[C@@H]5CCOC[C@H]5O)ncc4Cl)cc3c2CN1 (single isomer, unassigned) [Example 34a]
16 | 0.1 to 1 µM | < 0.01 µM | 0.1 to 1 µM | CC1Cc2cnc3c(F)cc(-c4nc(N[C@@H]5CCOC[C@H]5O)ncc4Cl)cc3c2CN1 (single isomer, unassigned) [Example 34b]
17 | 0.1 to 1 µM | < 0.01 µM | 0.01 to 0.1 µM | Cc1nc2c(F)cc(-c3nc(N[C@@H]4CCOC[C@H]4O)ncc3Cl)cc2c(Cl)c1C(C)O (single isomer, unassigned) [Example 35a]
18 | 0.1 to 1 µM | < 0.01 µM | 0.1 to 1 µM | Cc1nc2c(F)cc(-c3nc(N[C@@H]4CCOC[C@H]4O)ncc3Cl)cc2c(Cl)c1C(C)O (single isomer, unassigned) [Example 35b]
19 | 0.1 to 1 µM | < 0.01 µM | 0.1 to 1 µM | CC(O)c1cnc2c(F)cc(-c3nc(N[C@@H]4CCOC[C@H]4O)ncc3Cl)cc2c1Cl (single isomer, unassigned) [Example 40a]
20 | 0.1 to 1 µM | < 0.01 µM | 0.1 to 1 µM | CNC(C)c1cc2cc(-c3nc(N[C@@H]4CCOC[C@H]4O)ncc3Cl)cc(F)c2nc1C (single isomer, unassigned) [Example 45a]
21 | ≥ 1 µM | < 0.01 µM | 0.1 to 1 µM | CNC(C)c1cc2cc(-c3nc(N[C@@H]4CCOC[C@H]4O)ncc3Cl)cc(F)c2nc1C (single isomer, unassigned) [Example 45b]
22 | 0.1 to 1 µM | < 0.01 µM | 0.1 to 1 µM | Cc1nc2c(F)cc(-c3nc(N[C@@H]4CCOC[C@H]4O)ncc3Cl)cc2cc1C1CCCN1 (single isomer, unassigned) [Example 57a]
23 | 0.1 to 1 µM | < 0.01 µM | 0.01 to 0.1 µM | Cc1nc2c(F)cc(-c3nc(N[C@@H]4CCOC[C@H]4O)ncc3Cl)cc2cc1C(C)NC1CC1 (single isomer, unassigned) [Example 73b]
24 | 0.1 to 1 µM | < 0.01 µM | 0.01 to 0.1 µM | Cc1nc2c(F)cc(-c3nc(N[C@@H]4CCOC[C@H]4O)ncc3F)cc2c(C)c1C(C)O (single isomer, unassigned) [Example 81a]
25 | 0.1 to 1 µM | < 0.01 µM | 0.01 to 0.1 µM | Cc1nc2c(F)cc(-c3nc(N[C@@H]4CCOC[C@H]4O)ncc3F)cc2c(C)c1C(C)O (single isomer, unassigned) [Example 81b]
26 | 0.1 to 1 µM | < 0.01 µM | 0.01 to 0.1 µM | Cc1c(C(C)O)cnc2c(F)cc(-c3nc(N[C@@H]4CCOC[C@H]4O)ncc3Cl)cc12 (single isomer, unassigned) [Example 88a]
27 | 0.1 to 1 µM | < 0.01 µM | 0.1 to 1 µM | Cc1c(C(C)NC2CC2)cnc2c(F)cc(-c3nc(N[C@@H]4CCOC[C@H]4O)ncc3Cl)cc12 (single isomer, unassigned) [Example 91b]
28 | 0.1 to 1 µM | < 0.01 µM | 0.01 to 0.1 µM | CC1(C)NCc2c(cnc3c(F)cc(-c4nc(N[C@@H]5CCOC[C@H]5O)ncc4F)cc23)C1O (single isomer, unassigned) [Example 106b]
